Ends that are not written are not given here.
T1: ADGRD1 (Homo sapiens, UniProt Q6QNK2)
T1 construct: Flag (N); expressed in transfected cells; host or cells: HEK293F
T1 sequence (Q6QNK2 26-874): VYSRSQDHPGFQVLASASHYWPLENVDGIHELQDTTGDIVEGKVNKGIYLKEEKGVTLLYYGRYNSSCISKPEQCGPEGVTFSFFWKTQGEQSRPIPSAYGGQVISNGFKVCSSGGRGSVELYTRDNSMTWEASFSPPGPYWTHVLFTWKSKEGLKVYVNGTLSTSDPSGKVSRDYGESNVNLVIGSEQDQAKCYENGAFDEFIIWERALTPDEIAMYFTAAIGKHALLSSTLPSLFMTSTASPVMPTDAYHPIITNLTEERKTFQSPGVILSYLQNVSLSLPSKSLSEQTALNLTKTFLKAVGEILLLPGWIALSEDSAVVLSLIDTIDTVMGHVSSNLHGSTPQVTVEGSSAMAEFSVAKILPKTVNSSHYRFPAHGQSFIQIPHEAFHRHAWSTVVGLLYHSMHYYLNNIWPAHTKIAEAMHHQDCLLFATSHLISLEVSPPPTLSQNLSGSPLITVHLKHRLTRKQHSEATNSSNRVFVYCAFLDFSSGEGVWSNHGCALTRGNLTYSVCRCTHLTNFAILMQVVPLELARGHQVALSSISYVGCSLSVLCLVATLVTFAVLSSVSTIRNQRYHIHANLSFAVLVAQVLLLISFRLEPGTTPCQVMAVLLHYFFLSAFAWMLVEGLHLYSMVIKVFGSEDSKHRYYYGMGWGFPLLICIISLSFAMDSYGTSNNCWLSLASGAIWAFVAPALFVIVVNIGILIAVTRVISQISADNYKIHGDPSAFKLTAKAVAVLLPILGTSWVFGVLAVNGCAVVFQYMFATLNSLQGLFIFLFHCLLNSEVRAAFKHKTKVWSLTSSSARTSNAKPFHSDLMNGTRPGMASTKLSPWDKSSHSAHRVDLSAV

T2: ADGRF1 (Homo sapiens, UniProt Q5T601)
T2 construct: Flag (N); expressed in transfected cells; host or cells: HEK293F
T2 sequence (Q5T601 20-910): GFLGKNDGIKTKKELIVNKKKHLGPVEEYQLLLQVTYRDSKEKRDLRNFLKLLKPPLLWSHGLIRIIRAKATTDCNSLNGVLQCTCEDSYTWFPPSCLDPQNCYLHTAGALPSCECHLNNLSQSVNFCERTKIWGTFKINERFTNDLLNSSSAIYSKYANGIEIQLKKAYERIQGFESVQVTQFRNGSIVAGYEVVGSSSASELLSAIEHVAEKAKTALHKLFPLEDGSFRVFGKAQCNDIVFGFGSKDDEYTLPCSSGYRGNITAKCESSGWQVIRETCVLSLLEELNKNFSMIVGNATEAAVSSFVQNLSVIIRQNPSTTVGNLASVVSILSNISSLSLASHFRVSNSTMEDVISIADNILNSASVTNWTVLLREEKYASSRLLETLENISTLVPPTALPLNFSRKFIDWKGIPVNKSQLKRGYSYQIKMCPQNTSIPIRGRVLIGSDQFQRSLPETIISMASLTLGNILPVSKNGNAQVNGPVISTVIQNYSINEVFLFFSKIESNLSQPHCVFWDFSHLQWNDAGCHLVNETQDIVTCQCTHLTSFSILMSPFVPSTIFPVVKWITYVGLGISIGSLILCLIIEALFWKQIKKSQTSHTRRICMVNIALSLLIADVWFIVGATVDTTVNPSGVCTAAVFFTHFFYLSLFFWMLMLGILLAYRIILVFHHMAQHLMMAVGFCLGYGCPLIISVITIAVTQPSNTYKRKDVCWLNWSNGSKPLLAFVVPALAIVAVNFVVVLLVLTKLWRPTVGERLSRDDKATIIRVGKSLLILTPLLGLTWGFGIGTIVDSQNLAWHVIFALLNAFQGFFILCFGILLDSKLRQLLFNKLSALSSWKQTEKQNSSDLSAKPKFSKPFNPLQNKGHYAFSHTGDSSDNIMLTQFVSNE


How the values were obtained:
ADGRD1 [1] = biological target: T1, ADGRD1; experiment: BRET assay using TRUPATH biosensors, G protein activation of ADGRD1; format: cell-based; details: Gs, ADGRD1 WT, n = 3; for EC50: read-out: pEC50 (mean ± s.e.m.) (converted)
Description: (§1) To study the synthetic stalk peptide-induced G protein activation of ADGRD1 and ADGRF1, a BRET assay using TRUPATH biosensors was conducted to measure the proximal interaction between RLuc8 fused to the Gα subunit and GFP2 fused to the Gγ subunit. The TRUPATH suite of biosensors was obtained from Addgene (Addgene kit no. 1000000163) as a gift from B. Roth, including GαsS-RLuc8, Gαi1-RLuc8, Gβ3 and Gγ9-GFP2 as previously described.
(§2) The wild-type or mutant ADGRD1 and ADGRF1 were transiently co-transfected with plasmids encoding Gα-RLuc8 (GαsS-RLuc8 for Gs activation assay; Gαi1-RLuc8 for Gi activation assay), Gβ3 and Gγ9-GFP2 at a ratio of 2:1:1:1 (receptor plasmid, 800 ng; G protein subunit plasmids, 400 ng for each) in 2 ml HEK293F cells at a density of 1.2 × 10^6 cells per ml. Cell cultivation and receptor surface expression measurement were performed as described above. The cells were plated into 96-well white plates (40,000 cells per well) in 60 μl of assay buffer and incubated at 37 °C for 30 min. Then 10 μl of freshly prepared 50 μM coelenterazine 400a (Nanolight Technologies) was added. […] The cells were stimulated with 30 μl of synthetic stalk peptide at different concentrations and the BRET signals were monitored continuously five times. The last measurements were used in data analysis. The BRET ratios were calculated as the ratio of the GFP2 emission to RLuc8 emission.

ADGRF1 = biological target: T2, ADGRF1; experiment: BRET assay using TRUPATH biosensors, Gi activation of ADGRF1; format: cell-based; details: ADGRF1 WT; for Emax (mean ± s.e.m.): n = 3; for EC50: n = 3, read-out: pEC50 (mean ± s.e.m.) (converted)
Description: as §1, §2

ADGRD1 [2] = experiment: Cell-surface expression by flow cytometry, ADGRD1; format: cell-based, human; details: ADGRD1 constructs (pD1 Gs part of table), anti-Flag antibody, three independent measurements in duplicate
Description: The wild-type ADGRD1 and ADGRF1 and mutants used in functional studies were constructed into a pTT5 vector with a Flag tag at the N terminus for receptor expression measurement. The basal activity of ADGRD1 and ADGRF1 in mediating Gs signalling was measured by a cAMP accumulation assay using a LANCE Ultra cAMP detection kit (PerkinElmer) following the manufacturer’s instruction. In brief, 2 ml HEK293F cells (Invitrogen; cells were routinely tested for mycoplasma contamination) at a density of 1.2 × 10^6 cells per ml were transiently transfected with 2,000 ng plasmid of the wild-type or mutant receptor and cultured at 37 °C for 48 h with 5% CO2 atmosphere in a shaker shaking at 220 rpm. After collection, the cell-surface expression of the receptors was measured by incubating 10 μl cells with 15 μl monoclonal anti-Flag M2-FITC antibody (Sigma; 1:120 diluted in TBS supplemented with 4% BSA and 20% viability staining solution 7-AAD (Invitrogen)) at 4 °C for 20 min. After incubation, 175 μl TBS buffer was added and the fluorescent signal was measured using a flow cytometry reader (Guava easyCyte HT, Millipore).

| Molecule | Emax (mean ± s.e.m.) (ADGRD1 [1]) | EC50 (ADGRD1 [1]) | Emax (mean ± s.e.m.) (ADGRF1) | EC50 (ADGRF1) | Cell-surface expression (% of WT) (ADGRD1 [2]) |
| --- | --- | --- | --- | --- | --- |
| TNFAIAMQVVPLE [pD1 (L550^S6A)] | 53 ± 5 % of WT | 166 nM |  |  |  |
| CC[C@H](C)[C@H](NC(=O)[C@H](C)NC(=O)[C@H](Cc1ccccc1)NC(=O)[C@H](CC(N)=O)NC(=O)[C@@H](N)[C@@H](C)O)C(=O)N[C@@H](CC(C)C)C(=O)N[C@@H](CCSC)C(=O)N[C@@H](CCC(N)=O)C(=O)N[C@H](C(=O)N[C@H](C(=O)N1CCC[C@H]1C(=O)N[C@@H](CC(C)C)C(=O)N[C@@H](CCC(=O)O)C(=O)O)C(C)C)C(C)C [pD1] |  |  | 82 ± 8 % of WT | 132 nM |  |
| TSASILMSPFVP [pF1 (F569^S3A)] |  |  | 108 ± 7 % of WT | 380 nM |  |
| TNFAILAQVVPLE [pD1 (M551^S7A)] | 79 ± 10 % of WT | 263 nM |  |  |  |
| TSFSIAMSPFVP [pF1 (L572^S6A)] |  |  | 101 ± 12 % of WT | 676 nM |  |
| TSFSILASPFVP [pF1 (M573^S7A)] |  |  | 87 ± 11 % of WT | 501 nM |  |
| TNAAILMQVVPLE [pD1 (F547^S3A)] | 69 ± 13 % of WT | 724 nM |  |  |  |
| F716^5.36bA (protein, UniProt Q6QNK2 26-874, looked up, variant F716A) Adhesion G-protein coupled …: VYSRSQDHPGFQVLASASHYWPLENVDGIHELQDTTGDIVEGKVNKGIYLKEEKGVTLLYYGRYNSSCISKPEQCGPEGVTFSFFWKTQGEQSRPIPSAYGGQVISNGFKVCSSGGRGSVELYTRDNSMTWEASFSPPGPYWTHVLFTWKSKEGLKVYVNGTLSTSDPSGKVSRDYGESNVNLVIGSEQDQAKCYENGAFDEFIIWERALTPDEIAMYFTAAIGKHALLSSTLPSLFMTSTASPVMPTDAYHPIITNLTEERKTFQSPGVILSYLQNVSLSLPSKSLSEQTALNLTKTFLKAVGEILLLPGWIALSEDSAVVLSLIDTIDTVMGHVSSNLHGSTPQVTVEGSSAMAEFSVAKILPKTVNSSHYRFPAHGQSFIQIPHEAFHRHAWSTVVGLLYHSMHYYLNNIWPAHTKIAEAMHHQDCLLFATSHLISLEVSPPPTLSQNLSGSPLITVHLKHRLTRKQHSEATNSSNRVFVYCAFLDFSSGEGVWSNHGCALTRGNLTYSVCRCTHLTNFAILMQVVPLELARGHQVALSSISYVGCSLSVLCLVATLVTFAVLSSVSTIRNQRYHIHANLSFAVLVAQVLLLISFRLEPGTTPCQVMAVLLHYFFLSAFAWMLVEGLHLYSMVIKVFGSEDSKHRYYYGMGWGFPLLICIISLSFAMDSYGTSNNCWLSLASGAIWAAVAPALFVIVVNIGILIAVTRVISQISADNYKIHGDPSAFKLTAKAVAVLLPILGTSWVFGVLAVNGCAVVFQYMFATLNSLQGLFIFLFHCLLNSEVRAAFKHKTKVWSLTSSSARTSNAKPFHSDLMNGTRPGMASTKLSPWDKSSHSAHRVDLSAV |  |  |  |  | 98 ± 3 % of WT |
| Q798^7.49bA (protein, UniProt Q6QNK2 26-874, looked up, variant Q798A) Adhesion G-protein coupled …: VYSRSQDHPGFQVLASASHYWPLENVDGIHELQDTTGDIVEGKVNKGIYLKEEKGVTLLYYGRYNSSCISKPEQCGPEGVTFSFFWKTQGEQSRPIPSAYGGQVISNGFKVCSSGGRGSVELYTRDNSMTWEASFSPPGPYWTHVLFTWKSKEGLKVYVNGTLSTSDPSGKVSRDYGESNVNLVIGSEQDQAKCYENGAFDEFIIWERALTPDEIAMYFTAAIGKHALLSSTLPSLFMTSTASPVMPTDAYHPIITNLTEERKTFQSPGVILSYLQNVSLSLPSKSLSEQTALNLTKTFLKAVGEILLLPGWIALSEDSAVVLSLIDTIDTVMGHVSSNLHGSTPQVTVEGSSAMAEFSVAKILPKTVNSSHYRFPAHGQSFIQIPHEAFHRHAWSTVVGLLYHSMHYYLNNIWPAHTKIAEAMHHQDCLLFATSHLISLEVSPPPTLSQNLSGSPLITVHLKHRLTRKQHSEATNSSNRVFVYCAFLDFSSGEGVWSNHGCALTRGNLTYSVCRCTHLTNFAILMQVVPLELARGHQVALSSISYVGCSLSVLCLVATLVTFAVLSSVSTIRNQRYHIHANLSFAVLVAQVLLLISFRLEPGTTPCQVMAVLLHYFFLSAFAWMLVEGLHLYSMVIKVFGSEDSKHRYYYGMGWGFPLLICIISLSFAMDSYGTSNNCWLSLASGAIWAFVAPALFVIVVNIGILIAVTRVISQISADNYKIHGDPSAFKLTAKAVAVLLPILGTSWVFGVLAVNGCAVVFQYMFATLNSLAGLFIFLFHCLLNSEVRAAFKHKTKVWSLTSSSARTSNAKPFHSDLMNGTRPGMASTKLSPWDKSSHSAHRVDLSAV |  |  |  |  | 96 ± 18 % of WT |
| W773^6.53bA (protein, UniProt Q6QNK2 26-874, looked up, variant W773A) Adhesion G-protein coupled …: VYSRSQDHPGFQVLASASHYWPLENVDGIHELQDTTGDIVEGKVNKGIYLKEEKGVTLLYYGRYNSSCISKPEQCGPEGVTFSFFWKTQGEQSRPIPSAYGGQVISNGFKVCSSGGRGSVELYTRDNSMTWEASFSPPGPYWTHVLFTWKSKEGLKVYVNGTLSTSDPSGKVSRDYGESNVNLVIGSEQDQAKCYENGAFDEFIIWERALTPDEIAMYFTAAIGKHALLSSTLPSLFMTSTASPVMPTDAYHPIITNLTEERKTFQSPGVILSYLQNVSLSLPSKSLSEQTALNLTKTFLKAVGEILLLPGWIALSEDSAVVLSLIDTIDTVMGHVSSNLHGSTPQVTVEGSSAMAEFSVAKILPKTVNSSHYRFPAHGQSFIQIPHEAFHRHAWSTVVGLLYHSMHYYLNNIWPAHTKIAEAMHHQDCLLFATSHLISLEVSPPPTLSQNLSGSPLITVHLKHRLTRKQHSEATNSSNRVFVYCAFLDFSSGEGVWSNHGCALTRGNLTYSVCRCTHLTNFAILMQVVPLELARGHQVALSSISYVGCSLSVLCLVATLVTFAVLSSVSTIRNQRYHIHANLSFAVLVAQVLLLISFRLEPGTTPCQVMAVLLHYFFLSAFAWMLVEGLHLYSMVIKVFGSEDSKHRYYYGMGWGFPLLICIISLSFAMDSYGTSNNCWLSLASGAIWAFVAPALFVIVVNIGILIAVTRVISQISADNYKIHGDPSAFKLTAKAVAVLLPILGTSAVFGVLAVNGCAVVFQYMFATLNSLQGLFIFLFHCLLNSEVRAAFKHKTKVWSLTSSSARTSNAKPFHSDLMNGTRPGMASTKLSPWDKSSHSAHRVDLSAV |  |  |  |  | 69 ± 2 % of WT |
